{"source": "patent US20130102838A1", "about": "“Oocyte Spindle-Associated Factors Improve Somatic Cell Cloning” (WORCESTER POLYTECHNIC INSTITUTE, priority 2007, published 2013)", "key": {"[1]": {"test_system": "mouse oocytes arrested at MII", "conditions": "standard ethanol activation protocol, data not shown"}, "Metaphase II oocytes": {"test_system": "Metaphase II oocytes", "assay": "Induced enucleation of activated Metaphase II oocytes (2nd polar body extrusion)", "assay_type": "cell-based", "conditions": "MII oocytes activated with 7% EtOH or 2 μM ionomycin; Taxol 5 μg/mL, cycloheximide 10 μg/mL, demecolcine 0.4 μg/mL; control 3.7%", "protocol": "Metaphase II oocytes are activated with 7% EtOH or 2 μM ionomycin, followed by treatment with Taxol (5 μg/mL), or cycloheximide (10 μg/mL) or demecolcine (0.4 μg/mL), resulting in the 2nd polar body extrusion.\nWith demecoleine-induced enucleation, activated oocytes are treated with the microttibuline destabilizing drug, demecolcine. The resulting cytoplasts are competent to support term developments. Often, cytoplasts fail to complete the second polar body extrusion. Induced enucleation can take place, just prior to activation or just after activation."}, "Cdc20": {"test_system": "Cdc20", "assay": "Effect of demecolcine on Cdc20 localization in mouse oocytes", "assay_type": "cell-based", "conditions": "0.4 μg/mL, SrCl2-activated oocytes, throughout development", "protocol": "(§1) In order to induce superovulation in donor mice, female CF-1 mice (Charles River Laboratories) of breeding age were injected with Pregnant Mare Serum Gonadotropin (PMSG, Calbiochem) and Human Chorionic Gonadotropin (hCG, Calbiochem). For both hormones, 5IU was administered per mouse via intraperitioneal injection. PMSG was injected 64 hours before collection and hCG was given 48 hours later. Oviducts were dissected from mice euthanized by CO2 asphyxiation and placed in FHM media (Chemicon) at 37° C. Oocytes were separated from surrounding cumulus cells by a brief exposure to bovine hyaluronidase (HA, Sigma, 150 units/ml, <10 minutes). Oocytes with poor morphology (lysed, fragmented, dark pigmentation) were discarded. Oocytes were washed three times in FHM media and randomly sorted into treatment groups. Some oocytes were immediately fixed (see below) at Metaphase of Meiosis II (MII).\n(§2) For SrCl2 activation, the denuded oocytes were washed 3 times in FHM, 3 to 4 times in KSOM (without Ca^+2, Chemicon) equilibrated to 37° C. in 5% CO2, and then incubated in KSOM containing 10 mM strontium chloride at 37° C. with 5% CO2. After 15 minutes, some oocytes, depending on experimental design, were transferred to KSOM containing both SrCl2 (10 mM) and demecolcine (0.4 μg/mL) and incubated at 37° C. with 5% CO2. […]"}, "Apc11": {"test_system": "Apc11", "assay": "Effect of demecolcine on Apc11 spatial localization in mouse oocytes", "assay_type": "cell-based", "conditions": "0.4 μg/mL, SrCl2-activated oocytes, AII, TII, Interphase", "protocol": "as §1, with “(MII). […]” for “(MII).”\n(§3) To localize Apc11, a polyclonal antibody raised in rabbits against N-terminal amino acids of human Apc11 (Santa Cruz) was used as a primary antibody. […] Imaging was accomplished on a Zeiss Axiovert 200M inverted fluorescence microscope coupled to a Roper CoolSnapFx camera through a 63× oil emersion objective and 10× eyepiece/camera lens. […]"}, "Rec8": {"test_system": "Rec8", "assay": "Effect of demecolcine on Rec8 localization in mouse oocytes", "assay_type": "cell-based", "conditions": "0.4 μg/mL, SrCl2-activated oocytes", "protocol": "as §1, §2"}, "meiotic spindle": {"test_system": "meiotic spindle", "assay": "Effect of demecolcine on meiotic spindle and chromatin in activated mouse oocytes", "assay_type": "cell-based", "conditions": "0.4 μg/mL, SrCl2-activated oocytes", "protocol": "as §1, with “(MII). […]” for “(MII).”\nas §3"}}, "data": [{"compound": "CCO", "note": "[ethanol]", "values": [{"measurement": "eggs per experiment that failed to leave MII", "setting": "[1]", "value": "≤ 50", "unit": "%"}]}, {"compound": "C[C@@H]1C[C@@H]([C@H](O)CC2CC(=O)NC(=O)C2)C(=O)[C@@H](C)C1", "note": "[cycloheximide]", "values": [{"measurement": "induced enucleation, 2nd polar body extrusion", "setting": "Metaphase II oocytes", "value": 16.3, "unit": "%"}]}, {"compound": "CC(=O)O[C@H]1C(=O)[C@@]2(C)[C@H]([C@H](OC(=O)c3ccccc3)[C@]3(O)C[C@H](OC(=O)[C@H](O)[C@@H](NC(=O)c4ccccc4)c4ccccc4)C(C)=C1C3(C)C)[C@]1(OC(C)=O)CO[C@@H]1C[C@@H]2O", "note": "[Taxol]", "values": [{"measurement": "induced enucleation, 2nd polar body extrusion", "setting": "Metaphase II oocytes", "value": 3.6, "unit": "%"}]}, {"compound": "CN[C@H]1CCc2cc(OC)c(OC)c(OC)c2-c2ccc(OC)c(=O)cc21", "note": "[demecolcine]", "values": [{"measurement": "Cdc20 staining pattern", "setting": "Cdc20", "value": "low levels of muddled signal across the cytoplasm"}, {"measurement": "Apc11 staining pattern", "setting": "Apc11", "value": "non-distinct ataxia across the entire oocyte with no evidence of colocalization in any stage of development"}, {"measurement": "induced enucleation, 2nd polar body extrusion", "setting": "Metaphase II oocytes", "value": 54, "unit": "%"}, {"measurement": "Rec8 localization during Anaphase", "setting": "Rec8; Anaphase II", "value": "aggregate in an area surrounding the chromatin, but not directly over it"}, {"measurement": "Rec8 localization during Telophase", "setting": "Rec8; Telophase II, continues into Interphase", "value": "direct colocalization (purple spots) with the chromatin"}, {"measurement": "extrusion of chromatin", "setting": "meiotic spindle; Interphase (FIG. 16)", "value": "completely extrudes its chromatin in the second polar body"}, {"measurement": "meiotic spindle integrity", "setting": "meiotic spindle; compared to control eggs", "value": "severely disrupted"}]}]}
